Test results taken from ChEMBL document CHEMBL1201862, “PubChem BioAssay data set” (2004).
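Growth conditions: 96-well plates. Treatment: test compound, 48 hours, 5 concentrations. Analysis: linear interpolation between bracketing concentrations; unreached endpoints set to highest concentration. Abbreviation: GI50, concentration required for 50% inhibition of growth.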 The source made the active and inactive calls. Rule as the data show it: active = GI50 up to about 1.1 µM and inactive = higher.

Assays:
Assay in all cases: inhibition of tumour cell growth, NCI panel, 48 h
786-0 = tested on: 786-0
HL-60 = tested on: HL-60
HOP-62 = tested on: HOP-62
HOP-92 = tested on: HOP-92
HT-29 = tested on: HT-29
KM12 = tested on: KM12
LOX IMVI = tested on: LOX IMVI
M14 = tested on: M14
MDA-MB-435 = tested on: MDA-MB-435
MDA-N = tested on: MDA-N
NCI-H23 = tested on: NCI-H23
RPMI-8226 = tested on: RPMI-8226
SF-268 = tested on: SF-268
SF-539 = tested on: SF-539
SK-MEL-2 = tested on: SK-MEL-2
SK-MEL-5 = tested on: SK-MEL-5
SK-OV-3 = tested on: SK-OV-3
TK-10 = tested on: TK-10
UACC-257 = tested on: UACC-257
HCC 2998 = tested on: HCC 2998

Measured: GI50

c1ccc(COC2NCCN2Cc2ccccc2)cc1 (stereo not drawn)
inactive: 786-0 > 100 µM | HL-60 69 µM | HOP-62 > 100 µM | HOP-92 > 100 µM | HT-29 > 100 µM | KM12 > 100 µM | LOX IMVI > 100 µM | M14 > 100 µM | MDA-MB-435 > 100 µM | MDA-N > 100 µM | NCI-H23 > 100 µM | RPMI-8226 > 100 µM | SF-268 > 100 µM | SF-539 > 100 µM | SK-MEL-2 > 100 µM | SK-MEL-5 > 100 µM | SK-OV-3 > 100 µM | TK-10 > 100 µM | UACC-257 61 µM

CCOC(=O)C(NC(=O)c1ccccc1)(N1CCN(c2cc3c(cc2F)c(=O)c(C(=O)O)cn3C2CC2)CC1)C(F)(F)F (stereo not drawn)
inactive: 786-0 32.4 µM | HCC 2998 22.5 µM | HL-60 14.4 µM | HOP-62 31 µM | HOP-92 19.8 µM | KM12 16.8 µM | M14 19.6 µM | MDA-MB-435 21.1 µM | MDA-N 21.1 µM | NCI-H23 15.1 µM | RPMI-8226 23.1 µM | SF-268 18.1 µM | SF-539 15.2 µM | SK-MEL-2 18.7 µM | SK-MEL-5 15.8 µM | SK-OV-3 28.6 µM

O=[As](O)(O)c1ccc(/N=N/c2ccc(O)cc2)cc1
inactive: 786-0 > 100 µM | HL-60 > 100 µM | HOP-62 > 100 µM | HOP-92 > 100 µM | HT-29 > 100 µM | KM12 > 100 µM | LOX IMVI > 100 µM | M14 > 100 µM | MDA-MB-435 > 100 µM | MDA-N > 100 µM | NCI-H23 > 100 µM | RPMI-8226 > 100 µM | SF-268 > 100 µM | SK-MEL-2 > 100 µM | SK-MEL-5 > 100 µM | SK-OV-3 > 100 µM | TK-10 > 100 µM

CC1=C(O)C(=O)C[C@]2(C)[C@H]3CC=C4[C@@H]5CC(C)(C)CC[C@@H]5C(=O)[C@H](O)[C@@]4(C)[C@]3(C)CC[C@@H]12
inactive: 786-0 19.1 µM | HCC 2998 20.4 µM | HL-60 > 50 µM | HOP-62 30.7 µM | HOP-92 7.36 µM | HT-29 > 50 µM | KM12 > 50 µM | M14 > 50 µM | MDA-MB-435 > 50 µM | MDA-N 47.3 µM | NCI-H23 > 50 µM | RPMI-8226 42.5 µM | SF-268 > 50 µM | SF-539 2.8 µM | SK-MEL-2 37.4 µM | SK-MEL-5 34.8 µM | SK-OV-3 > 50 µM | TK-10 23.9 µM | UACC-257 > 50 µM

CC1=CC=C2c3ccccc3C=CN2C(=O)C1
inactive: 786-0 60.7 µM | HCC 2998 56.6 µM | HL-60 16.9 µM | HOP-62 > 100 µM | HT-29 51.4 µM | KM12 36.3 µM | LOX IMVI 40.9 µM | M14 62.1 µM | MDA-MB-435 34.8 µM | MDA-N 37.2 µM | NCI-H23 61.9 µM | RPMI-8226 25.7 µM | SF-268 60.3 µM | SF-539 73.8 µM | SK-MEL-2 22.4 µM | SK-MEL-5 22.1 µM | SK-OV-3 > 100 µM | TK-10 20.1 µM | UACC-257 96.6 µM

N#Cc1c2c(c(Nc3cccc(C(F)(F)F)c3)n3c1nc1ccccc13)CCCC2
inactive: 786-0 13.1 µM | HOP-62 16 µM | HOP-92 3.99 µM | HT-29 16.2 µM | KM12 81.3 µM | LOX IMVI 14.8 µM | MDA-MB-435 28.4 µM | MDA-N 15 µM | NCI-H23 20.9 µM | RPMI-8226 19.4 µM | SF-268 15.2 µM | SF-539 16.3 µM | SK-MEL-5 60.8 µM | SK-OV-3 17.1 µM | TK-10 16.3 µM | UACC-257 22.2 µM

CN(CC(=O)O)c1ncc2c(n1)CCCC2
inactive: 786-0 > 100 µM | HL-60 > 100 µM | HOP-62 > 100 µM | HOP-92 > 100 µM | HT-29 > 100 µM | KM12 > 100 µM | LOX IMVI > 100 µM | M14 > 100 µM | MDA-MB-435 > 100 µM | MDA-N > 100 µM | NCI-H23 > 100 µM | RPMI-8226 > 100 µM | SF-268 > 100 µM | SF-539 > 100 µM | SK-MEL-2 > 100 µM | SK-MEL-5 > 100 µM | SK-OV-3 > 100 µM | TK-10 > 100 µM | UACC-257 > 100 µM

CN(C(=O)Cc1cc(Cl)c(Cl)cc1NC(=O)CN)[C@H]1CCCC[C@@H]1N1CCCC1
inactive: 786-0 16.3 µM | HCC 2998 16.6 µM | HL-60 19.1 µM | HOP-62 > 100 µM | HOP-92 > 100 µM | HT-29 20.7 µM | KM12 47.4 µM | LOX IMVI 18.3 µM | M14 18.2 µM | MDA-MB-435 16.1 µM | MDA-N 15.3 µM | NCI-H23 > 100 µM | RPMI-8226 30.8 µM | SF-268 77.1 µM | SK-MEL-2 18.8 µM | SK-OV-3 > 100 µM | TK-10 37.9 µM | UACC-257 18.6 µM

CC(=O)Nc1ccc2c(C(=O)O)c(C)c(O)nc2n1
inactive: 786-0 > 100 µM | HL-60 > 100 µM | HOP-92 5.27 µM | HT-29 > 100 µM | KM12 > 100 µM | M14 > 100 µM | MDA-MB-435 > 100 µM | MDA-N > 100 µM | NCI-H23 > 100 µM | RPMI-8226 > 100 µM | SF-268 57.7 µM | SF-539 > 100 µM | SK-MEL-2 > 100 µM | SK-MEL-5 > 100 µM | SK-OV-3 > 100 µM | TK-10 > 100 µM | UACC-257 > 100 µM

C=CC(C)(C)C1(CC(OC)OC)C(=O)N(C)c2ccccc21 (stereo not drawn)
inactive: 786-0 > 25 µM | HCC 2998 > 25 µM | HL-60 > 25 µM | HOP-62 > 25 µM | HOP-92 > 25 µM | HT-29 > 25 µM | KM12 > 25 µM | LOX IMVI > 25 µM | M14 > 25 µM | MDA-MB-435 > 25 µM | MDA-N > 25 µM | NCI-H23 > 25 µM | RPMI-8226 > 25 µM | SF-268 > 25 µM | SK-MEL-2 > 25 µM | SK-MEL-5 > 25 µM | SK-OV-3 > 25 µM | UACC-257 > 25 µM

COc1cc(Cl)c(CC(=O)c2c[nH]c3ccccc23)cc1OC
inactive: 786-0 13.7 µM | HL-60 > 37.2 µM | HOP-62 5.3 µM | HOP-92 5.36 µM | HT-29 > 100 µM | KM12 > 100 µM | LOX IMVI > 100 µM | M14 > 100 µM | MDA-MB-435 > 100 µM | MDA-N > 100 µM | NCI-H23 > 42.5 µM | RPMI-8226 > 100 µM | SF-268 13.7 µM | SF-539 6.22 µM | SK-MEL-2 16.7 µM | SK-MEL-5 > 100 µM | SK-OV-3 8.07 µM | TK-10 16.9 µM | UACC-257 > 100 µM

NC(=O)CC1OC(=O)Cc2cc3c(c(O)c21)C(=O)c1c(O)cccc1C3=O (stereo not drawn)
inactive: 786-0 > 100 µM | HCC 2998 > 100 µM | HL-60 > 100 µM | HOP-92 > 100 µM | HT-29 > 100 µM | LOX IMVI > 100 µM | M14 > 100 µM | MDA-MB-435 > 100 µM | MDA-N > 100 µM | NCI-H23 > 100 µM | SF-539 92.7 µM | SK-MEL-2 > 100 µM | SK-MEL-5 67.5 µM | SK-OV-3 > 100 µM | TK-10 > 100 µM | UACC-257 > 100 µM

O=C1CCN2C(=N1)Sc1ccccc12
inactive: 786-0 > 100 µM | HL-60 > 100 µM | HOP-62 > 100 µM | HOP-92 > 100 µM | HT-29 > 100 µM | KM12 > 100 µM | LOX IMVI > 100 µM | M14 > 100 µM | MDA-MB-435 > 100 µM | MDA-N > 100 µM | NCI-H23 > 100 µM | RPMI-8226 > 100 µM | SF-268 > 100 µM | SF-539 > 100 µM | SK-MEL-2 > 100 µM | SK-MEL-5 > 100 µM | SK-OV-3 > 100 µM | TK-10 > 100 µM | UACC-257 > 100 µM

Cc1cn(C2CC(OC(=O)c3ccc(Cl)cc3)C(COC(=O)c3ccc(Cl)cc3)O2)c(=O)[nH]c1=O (stereo not drawn)
inactive: 786-0 > 100 µM | HL-60 > 100 µM | HOP-62 > 100 µM | HOP-92 > 100 µM | HT-29 > 100 µM | KM12 > 100 µM | LOX IMVI > 100 µM | M14 > 100 µM | MDA-MB-435 > 100 µM | MDA-N > 100 µM | NCI-H23 > 100 µM | RPMI-8226 > 100 µM | SF-268 > 100 µM | SK-MEL-2 > 100 µM | SK-MEL-5 > 100 µM | SK-OV-3 > 100 µM | TK-10 > 100 µM | UACC-257 > 100 µM

COc1ccc(/C=C/C(=O)c2nc3ccccc3[nH]2)cc1
inactive: 786-0 11.6 µM | HL-60 9.79 µM | HOP-62 25.4 µM | HOP-92 14 µM | HT-29 7.03 µM | KM12 4.62 µM | LOX IMVI 9.91 µM | M14 20.3 µM | MDA-MB-435 11.7 µM | MDA-N 11.9 µM | RPMI-8226 3.8 µM | SF-268 15.2 µM | SF-539 8.32 µM | SK-MEL-2 28.6 µM | SK-MEL-5 17.9 µM | SK-OV-3 21.2 µM | TK-10 18.1 µM | UACC-257 22 µM
